Reference: publication PMC13183915, “A platinum butterfly effect: small changes turn an anticancer drug into a non-toxic metalloantibiotic with in vivo efficacy” (npj Antimicrobials and Resistance, 2026)
“And” between values parts separate entries of the source, which are not always exact repeats. Equal values may be shown once.

Legend:
MRSA NRS 119 = assay: Broth microdilution MIC, MRSA NRS 119; assay type: cell-based, S. aureus; conditions: MRSA NRS 119
Procedure: The data is given in supporting information (Table S5). Before starting the experiment, a single colony was picked from MHA plate, inoculated in MHBII and incubated overnight at 37 °C with shaking for 18–24 h to get the starter culture. Antibiotic susceptibility testing was conducted according to the CLSI (Clinical & Laboratory Standards Institute) guidelines using the broth microdilution assay. 10 mg/mL stock solutions of test compounds were prepared in DMSO. Bacterial cultures were inoculated in MHBII and optical density (OD) was measured at 600 nm, followed by dilution to achieve ~10^6 CFU/mL. The compounds were tested from 64 to 0.5 mg/L in two-fold serial diluted fashion with 2.5 μL of each concentration added to well of a 96-well round bottom microtiter plate. Later, 97.5 μL of bacterial suspension was added to each well containing either test compound or appropriate controls. […] The MIC is defined as the lowest concentration of the compound at which there is absence of visible growth. For each test compound, MIC determinations were carried out independently three times using duplicate samples.

S. aureus ATCC 29213 = assay: Post antibiotic effect (PAE); assay type: cell-based; conditions: for Time for 1 log10 increase in bacterial cfu count: 1 h exposure
Procedure: Post antibiotic effect (PAE) was determined as follows. […] Following incubation, cultures were centrifuged and washed twice with pre-warmed MHBII to remove any traces of antibiotics. Finally, cells were resuspended in drug-free MHBII and incubated further at 37 °C. Samples were taken every 1 h, serially diluted, and plated on tryptic soy agar (TSA) for enumeration of CFU. […] CFU observed immediately after the removal of the drug, and C in a similarly treated drug-free control.

[1] = test system: Galleria mellonella infection model; set-up: method as in PMID 34018686; conditions: systematic infection model; cited from earlier work
C. albicans = test system: C. albicans; set-up: method as in PMID 36311838; conditions: cited from earlier work

C1=C\CC/C=C\CC/1.[Cl][Pt][Cl] [Pt1]
MIC (MRSA NRS 119): 0.125 – 0.25 µg/mL and 0.33–0.67 µM | PAE (S. aureus ATCC 29213; 1x MIC): ~ 5.5 h | Time for 1 log10 increase in bacterial cfu count (S. aureus ATCC 29213; 1x MIC): ~ 8 h | PAE (S. aureus ATCC 29213; 5x MIC): ~ 5.5 h | Time for 1 log10 increase in bacterial cfu count (S. aureus ATCC 29213; 5x MIC): ~ 8 h | PAE (S. aureus ATCC 29213; 10x MIC): ~ 5.5 h | Time for 1 log10 increase in bacterial cfu count (S. aureus ATCC 29213; 10x MIC): ~ 8 h | in vivo activity [1]: no in vivo activity was observed | fungal load (C. albicans): reduced the fungal load
